Experimental data published in article PMC9100673, “Acridine Based N-Acylhydrazone Derivatives as Potential Anticancer Agents: Synthesis, Characterization and ctDNA/HSA Spectroscopic Binding Properties” (Molecules, 2022).

Molecular target: T1, human serum albumin (HSA) (Homo sapiens, UniProt P02768)
T1 construct: purchased Sigma (St. Louis, MO, USA)
Assay: HSA competitive site-marker experiment, reverse titration with 3a
Type: binding
Details: for KSV / Kb: 25 °C
Description: Displacement experiments were performed using warfarin and ibuprofen as site marker fluorescence probes, as these agents have been proven to bind with HSA at Sudlow sites I and II, respectively. The fluorescence quenching spectra of HSA:acridine derivatives […] (Figure 5) in the presence of increasing concentrations of specific site markers, warfarin or ibuprofen, were studied.
In addition to the spectra assays, reverse titration studies were also performed. The intensity of the fluorescence of the HSA:site marker complex was recorded at increasing concentrations of acridine derivative 3a, with the obtained results given in Figure S7. […] The obtained data were analysed using Equations (3) and (4). The linear Stern-Volmer dependence and dependence log(F0 − F)/F = log[Q] was used to obtain Stern-Volmer quenching constant values (KSV) and apparent binding constant values (Kb). […] A marked change in the quenching constant was also observed after the addition of ibuprofen, a result which could be partly due to the interaction between derivative 3a and ibuprofen. Similar changes and associated interactions between the marker and the studied ligand have been observed in other studies in which competitive experiments were conducted.
Competitive experiments of HSA were performed using warfarin and ibuprofen as standard site marker ligands. The selected markers for the site I were warfarin, whereas site II was probed using ibuprofen. HSA-acridine derivative (3a–3d) complexes at a concentration ratio of 1:1 ([HSA] = 4 μM) were titrated into specific side markers (0–20 μM). The molar ratio of the HSA:marker complexes were 1:0.5, 1:1, 1:1.5, 1:2, 1:2.5, 1:3, 1:3.5, 1:4, 1:4.5 and 1:5. The reaction mixture of the HSA-acridine derivatives complexes with the side markers were preincubated for 15 min prior to spectral measurements. Additionally, a reverse titration competitive experiment was performed for derivative 3a. The site probe-HSA complex (1:1, [HSA] = 4 μM) was titrated with derivative 3a at a concentration gradient of 0.6–6 μM. In order to determine the binding site of compound 3a, the fluorescence quenching data were analysed using Stern-Volmer and modified Stern-Volmer equations to calculate the value of the Stern-Volmer constants (KSV) and binding constants Kb, and to determine the number of binding sites n. All spectra measurements were performed at 280 nm excitation wavelength and the slits were set at 5 nm for excitation and 10 nm for emission spectra at a range of 290–550 nm and at 25 °C.

[1] = in the presence of ibuprofen (HSA:marker 1:1)
[2] = in the presence of warfarin (HSA:marker 1:1)

T1 sequence (P02768 25-609): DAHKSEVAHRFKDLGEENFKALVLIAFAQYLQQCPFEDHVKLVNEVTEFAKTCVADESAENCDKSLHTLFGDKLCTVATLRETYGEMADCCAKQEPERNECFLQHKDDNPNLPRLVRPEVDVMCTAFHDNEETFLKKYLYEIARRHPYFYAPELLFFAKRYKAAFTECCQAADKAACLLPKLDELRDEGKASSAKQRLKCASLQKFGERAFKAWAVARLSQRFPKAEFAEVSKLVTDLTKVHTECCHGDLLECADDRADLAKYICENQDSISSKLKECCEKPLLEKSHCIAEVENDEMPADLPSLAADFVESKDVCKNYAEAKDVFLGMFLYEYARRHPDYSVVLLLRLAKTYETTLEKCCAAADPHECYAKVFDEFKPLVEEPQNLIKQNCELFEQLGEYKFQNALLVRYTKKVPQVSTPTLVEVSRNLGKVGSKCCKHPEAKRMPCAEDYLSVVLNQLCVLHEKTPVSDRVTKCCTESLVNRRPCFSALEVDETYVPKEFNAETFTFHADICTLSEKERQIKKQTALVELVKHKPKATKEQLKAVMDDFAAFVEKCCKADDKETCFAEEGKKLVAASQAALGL

binding site on HSA (competition with warfarin and ibuprofen): Sudlow site I
KSV [1]: 328000 M⁻¹
Kb [1]: 667000 M⁻¹
KSV [2]: 226000 M⁻¹
Kb [2]: 254000 M⁻¹
SMILES: O=C(N/N=C/c1cccc2cc3ccccc3nc12)c1ccccc1 [3a, N′-[(E)-(Acridin-4-yl)methylidene]benzohydrazide]
